Experimental data published in patent publication US4471117A, “3,4-Dihydro-2H-pyrimido(2,1-b)benzothiazoles” (Janssen Pharmaceutica N.V., priority 1980, dated 1984).
Structures can show the parent of a compound that is named as a salt. Where two headings read alike, the source gives them in different places.

Key:
[1] = target: T1, monoamine oxidase (type B, β-phenylethylamine substrate) (Rattus norvegicus, UniProt P19643); test: In-vitro monoamine oxidase inhibition, [14C]phenylethylamine hydrochloride as substrate; format: biochemical; conditions: rat brain monoamine oxidase extract, 37° C., 20 minutes, pH 7.4, read-out: I.C.50 -value using as substrate [14C]phenylethylamine.HCl
T1 sequence (P19643 1-520): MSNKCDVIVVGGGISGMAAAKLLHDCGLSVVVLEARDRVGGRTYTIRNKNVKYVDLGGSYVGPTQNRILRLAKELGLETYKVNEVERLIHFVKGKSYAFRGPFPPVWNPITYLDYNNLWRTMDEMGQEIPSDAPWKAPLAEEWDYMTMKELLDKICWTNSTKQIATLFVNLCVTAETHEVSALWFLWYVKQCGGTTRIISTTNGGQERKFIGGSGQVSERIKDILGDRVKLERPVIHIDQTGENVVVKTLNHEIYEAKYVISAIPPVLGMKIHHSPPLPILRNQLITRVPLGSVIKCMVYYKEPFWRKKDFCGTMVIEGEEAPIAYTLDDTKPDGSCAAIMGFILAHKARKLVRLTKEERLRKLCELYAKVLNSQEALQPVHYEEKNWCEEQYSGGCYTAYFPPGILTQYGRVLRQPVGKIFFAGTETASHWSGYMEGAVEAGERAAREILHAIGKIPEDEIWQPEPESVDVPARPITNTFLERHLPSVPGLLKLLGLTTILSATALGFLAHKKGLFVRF

[2] = target: T2, monoamine oxidase (type A, tryptamine substrate) (Rattus norvegicus, UniProt P21396); test: In-vitro monoamine oxidase inhibition, [14C]tryptamine as substrate; format: biochemical; conditions: rat brain monoamine oxidase extract, 37° C., 20 minutes, pH 7.4, read-out: I.C.50 -value using as substrate [14C]tryptamine
T2 sequence (P21396 1-526): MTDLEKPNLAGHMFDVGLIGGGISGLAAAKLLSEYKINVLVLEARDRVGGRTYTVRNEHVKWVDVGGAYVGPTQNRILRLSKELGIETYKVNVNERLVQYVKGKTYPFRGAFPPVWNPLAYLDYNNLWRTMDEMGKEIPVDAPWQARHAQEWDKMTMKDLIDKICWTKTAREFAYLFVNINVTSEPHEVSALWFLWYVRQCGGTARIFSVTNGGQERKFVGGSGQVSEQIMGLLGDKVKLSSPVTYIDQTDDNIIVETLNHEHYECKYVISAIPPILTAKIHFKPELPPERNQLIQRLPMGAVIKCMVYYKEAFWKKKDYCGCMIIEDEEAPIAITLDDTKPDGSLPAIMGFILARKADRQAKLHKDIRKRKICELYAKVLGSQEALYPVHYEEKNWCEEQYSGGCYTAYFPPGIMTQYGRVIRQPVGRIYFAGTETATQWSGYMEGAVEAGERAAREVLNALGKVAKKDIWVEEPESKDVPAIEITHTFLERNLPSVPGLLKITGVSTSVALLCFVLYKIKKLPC

SMILES	IC50 ([1]; Table 2) [nM]	IC50 ([2]; Table 2) [nM]	IC50 ([1]; Table 1) [nM]	IC50 ([2]; Table 1) [nM]
CC[N+]1=C2Sc3ccc(NC(C)C)cc3N2CCC1	45000	11	–	–
C=CC[N+]1=C2Sc3ccc(CCCCCCCCC)cc3N2CCC1	380	250	–	–
Cc1ccc(C(C)(C)C)c2c1N1CCCN=C1S2 [6-CH3,9-C(CH3)3]	–	–	> 100000	65
c1ccc2cc3c(cc2c1)SC1=NCCCN13 [7,8-(CHCHCHCH)]	–	–	9000	30
CCCc1ccc2c(c1)N1CCCN=C1S2 [7-C3 H7]	–	–	1200	20
O=C(c1ccccc1)c1ccc2c(c1)N1CCCN=C1S2 [7-COC6 H5]	–	–	2500	120
COc1ccc(CNc2ccc3c(c2)N2CCCN=C2S3)cc1 [7-NHCH2 (4-OCH3C6 H4)]	–	–	65	250
CCC(CC)Nc1ccc2c(c1)N1CCCN=C1S2 [7-NHCH(C2 H5)2, N-(1-ethylpropyl)-3,4-dihydro-2H-pyrimido[2,1-b]benzothiazol-7-amine]	–	–	305	3.4
c1cc2c(cc1NC1CCCC1)N1CCCN=C1S2 [7-NHc.C5 H9]	–	–	120	5
CCCCc1ccc2c(c1)SC1=NCCCN12 [8-C4 H9]	–	–	260	32
Cc1ccc(CNc2ccc3c(c2)SC2=NCCCN23)cc1 [8-NHCH2 (4-CH3C6 H4)]	–	–	20	1000
COc1cc(CNc2ccc3c(c2)SC2=NCCCN23)cc(OC)c1OC [8-NHCH2 [3,4,5-(OCH3)3C6 H2]]	–	–	34	20000
CCOC(=O)C(=CNc1ccc2c(c1)SC1=NCCCN12)C(=O)OCC [8-NHCHC(COOEt)2]	–	–	160	20000
CC(C)Nc1ccc2c(c1)SC1=NCCCN12 [8-NHi.C3 H7]	–	–	20000	90
c1cc2c(cc1C1CCCCC1)SC1=NCCCN12 [8-c.C6 H11]	–	–	50	8.5
CCNc1cccc2c1SC1=NCCCN12 [9-NHC2 H5, N-ethyl-3,4-dihydro-2H-pyrimido[2,1-b]benzothiazol-9-amine]	–	–	100000	3
NC(=O)Nc1ccc2c(c1)N1CCCN=C1S2 [Example 7-NHCONH2, N-(3,4-dihydro-2H-pyrimido[2,1-b]benzothiazol-7-yl)urea]	–	–	12000	850
Nc1cccc2c1SC1=NCCCN12 [Example 9-NH2, 3,4-dihydro-2H-pyrimido[2,1-b]benzothiazol-9-amine dihydrochloride]	–	–	90000	350
